The text below walks through data of ChEMBL document CHEMBL3813644, “Utilization of Structure-Based Design to Identify Novel, Irreversible Inhibitors of EGFR Harboring the T790M Mutation” (ACS Med Chem Lett, 2016).

As a reminder, the EC50 is the concentration giving half of the maximal effect. Low values mean greater potency, high ones weaker potency. A word on the IC50: it is the concentration at which inhibition is half-maximal. The inhibition is the relative decrease from the control value, in per cent. In general, GI50 refers to the concentration at which growth is held to half of that of the control. In general, solubility refers to how much of the substance goes into solution per volume.

Data set [1] has as its target Epidermal growth factor receptor (Homo sapiens, UniProt P00533, EX19DEL). In words: Inhibition of EGFR exon19 deletion activating mutant autophosphorylation in human PC9 cells incubated for 2 hrs by ELISA. The data set is classed as cell-based, PC-9.
The target in data set [2] is T1, Epidermal growth factor receptor (Homo sapiens, UniProt P00533, L858R/T790M). In words: Inhibition of recombinant N-terminal GST-tagged human EGFR T790M/L858R double mutant using biotinylated TK substrate incubated for 50 mins by HTRF assay. The data set is classed as protein assay. A general note: TR-FRET usually uses a lanthanide donor and a delayed reading to cut background.
T1 sequence (P00533 25-1210 T790M/L858R limits assumed): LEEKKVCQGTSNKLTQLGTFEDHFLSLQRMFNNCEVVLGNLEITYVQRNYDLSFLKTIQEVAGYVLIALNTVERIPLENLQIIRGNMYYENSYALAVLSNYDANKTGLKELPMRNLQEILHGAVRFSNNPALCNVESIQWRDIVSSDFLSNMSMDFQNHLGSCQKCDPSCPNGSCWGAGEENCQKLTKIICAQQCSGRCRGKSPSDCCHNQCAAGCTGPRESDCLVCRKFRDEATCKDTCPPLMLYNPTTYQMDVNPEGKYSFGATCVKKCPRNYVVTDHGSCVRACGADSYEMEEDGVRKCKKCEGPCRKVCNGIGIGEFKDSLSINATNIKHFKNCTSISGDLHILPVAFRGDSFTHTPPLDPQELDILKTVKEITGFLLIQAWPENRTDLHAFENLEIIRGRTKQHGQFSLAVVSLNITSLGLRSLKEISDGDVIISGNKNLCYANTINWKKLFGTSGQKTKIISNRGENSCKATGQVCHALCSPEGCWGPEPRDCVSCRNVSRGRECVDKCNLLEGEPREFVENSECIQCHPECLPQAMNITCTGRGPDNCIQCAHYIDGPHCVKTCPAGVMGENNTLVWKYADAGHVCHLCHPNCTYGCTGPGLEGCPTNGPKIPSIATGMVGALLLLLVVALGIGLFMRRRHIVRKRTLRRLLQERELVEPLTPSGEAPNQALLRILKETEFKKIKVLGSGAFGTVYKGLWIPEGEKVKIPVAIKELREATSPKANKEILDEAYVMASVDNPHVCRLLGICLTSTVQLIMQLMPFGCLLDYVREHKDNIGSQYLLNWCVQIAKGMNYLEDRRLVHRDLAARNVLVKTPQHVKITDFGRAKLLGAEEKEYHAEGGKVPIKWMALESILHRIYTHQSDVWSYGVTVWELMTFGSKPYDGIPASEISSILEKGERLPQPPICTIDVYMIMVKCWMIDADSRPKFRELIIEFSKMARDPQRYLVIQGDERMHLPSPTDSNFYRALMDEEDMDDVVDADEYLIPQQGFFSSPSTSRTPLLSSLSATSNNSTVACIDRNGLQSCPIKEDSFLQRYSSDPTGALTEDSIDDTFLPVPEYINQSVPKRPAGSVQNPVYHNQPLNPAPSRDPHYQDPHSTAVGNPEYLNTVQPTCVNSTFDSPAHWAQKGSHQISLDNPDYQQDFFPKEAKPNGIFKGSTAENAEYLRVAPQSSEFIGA

The subject of the next data set is Mus musculus. Briefly: T>EC50 in female nude mouse assessed as time duration during which plasma concentration covers cellular EC50 for EGFR T790M/L858R double mutant autophosphorylation in human NCI-H1975 cells at 50 mg/kg, po. Format: ADME, organism-based. The conditions noted are these: in vivo.
Data set [3] deals with T2, Epidermal growth factor receptor (Homo sapiens, UniProt P00533). In words: Inhibition of wild-type human EGFR at 1 uM.
T2 sequence (P00533 whole entry): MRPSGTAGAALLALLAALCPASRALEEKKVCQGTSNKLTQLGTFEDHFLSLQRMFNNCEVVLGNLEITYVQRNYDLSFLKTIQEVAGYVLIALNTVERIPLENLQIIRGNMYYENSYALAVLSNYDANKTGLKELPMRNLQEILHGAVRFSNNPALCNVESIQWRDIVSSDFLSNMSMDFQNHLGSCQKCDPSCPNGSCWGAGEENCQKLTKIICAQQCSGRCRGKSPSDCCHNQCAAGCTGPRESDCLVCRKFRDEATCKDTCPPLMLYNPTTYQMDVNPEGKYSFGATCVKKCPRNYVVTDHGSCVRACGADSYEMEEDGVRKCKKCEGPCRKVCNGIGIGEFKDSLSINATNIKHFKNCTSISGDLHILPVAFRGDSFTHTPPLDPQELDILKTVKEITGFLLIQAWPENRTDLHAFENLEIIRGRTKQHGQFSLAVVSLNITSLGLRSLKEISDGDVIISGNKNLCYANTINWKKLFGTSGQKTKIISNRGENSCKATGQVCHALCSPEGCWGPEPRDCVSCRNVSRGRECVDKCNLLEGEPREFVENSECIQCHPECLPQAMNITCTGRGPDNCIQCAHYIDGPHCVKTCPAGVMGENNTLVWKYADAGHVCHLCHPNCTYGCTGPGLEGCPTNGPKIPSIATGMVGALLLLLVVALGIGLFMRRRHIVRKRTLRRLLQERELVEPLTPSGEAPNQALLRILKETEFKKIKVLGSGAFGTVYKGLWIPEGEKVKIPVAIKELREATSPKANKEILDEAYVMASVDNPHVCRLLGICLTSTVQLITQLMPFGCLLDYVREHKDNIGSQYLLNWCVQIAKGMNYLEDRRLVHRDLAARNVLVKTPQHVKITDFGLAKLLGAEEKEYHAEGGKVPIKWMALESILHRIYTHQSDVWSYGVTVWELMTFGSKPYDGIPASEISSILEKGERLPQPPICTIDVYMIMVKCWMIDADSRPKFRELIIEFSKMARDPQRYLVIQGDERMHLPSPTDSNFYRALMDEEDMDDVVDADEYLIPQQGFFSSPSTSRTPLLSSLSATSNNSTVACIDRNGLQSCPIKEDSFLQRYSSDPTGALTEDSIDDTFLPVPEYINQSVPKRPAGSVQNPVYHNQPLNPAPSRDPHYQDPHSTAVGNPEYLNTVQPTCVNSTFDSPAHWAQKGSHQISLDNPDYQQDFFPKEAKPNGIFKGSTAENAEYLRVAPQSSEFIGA
For another data set, the system named is A-431. Briefly: Antitumor activity against human A431 cells harboring wild-type EGFR xenografted in mouse at 50 mg/kg/day, po qd for 7 days. Format: functional. The conditions noted are these: A-431, po, 168 h, read-out: TGI. In general terms: In xenograft studies the graft and the host belong to different species.
For data set [4], the system named is NCI-H1975. Briefly: Antitumor activity against human NCI-H1975 cells harboring EGFR T790M/L858R double mutant xenografted in mouse at 50 mg/kg/day, po qd for 7 days. Format: functional. The conditions noted are these: 168 h, read-out: TGI.
Data set [5] is described as follows: Selectivity ratio of GI50 for human Calu6 cells to GI50 for human NCI-H1975 cells. The conditions noted are these: Calu6 cells and NCI-H1975 cells, read-out: RatioGI50. The data set is classed as ADME, cell-based.
Data set [6] has as its target T1, Epidermal growth factor receptor. Briefly: Inhibition of EGFR T790M/L858R double mutant autophosphorylation in human NCI-H1975 cells incubated for 2 hrs by ELISA. Format: cell-based. A general note: ELISA stands for enzyme-linked immunosorbent assay.
A short description of data set [7]: Intrinsic clearance in human liver microsomes. Format: ADME. The conditions noted are these: read-out: CLH.
Data set [8] in a line: Antiproliferative activity against human PC9 cells assessed as growth inhibition incubated for 72 hrs by SYTOX green nucleic acid stain-based fluorescence analysis. The conditions noted are these: PC-9, 72 h. Format: functional.
The test system of data set [9] is NCI-H1975. In words: Antiproliferative activity against human NCI-H1975 cells assessed as growth inhibition incubated for 72 hrs by SYTOX green nucleic acid stain-based fluorescence analysis. Format: functional. The conditions noted are these: NCI-H1975, 72 h.
A short description of data set [10]: Antitumor activity against human PC9 cells harboring EGFR exon19 deletion activating mutant xenografted in mouse at 50 mg/kg/day, po qd for 7 days. Format: functional. The conditions noted are these: PC-9, po, 168 h, read-out: TGI.
Data set [11] relates to Epidermal growth factor receptor (Homo sapiens), P00533 [L858R,T790M]. Briefly: Inhibition of human EGFR T790M/L858R double mutant at 1 uM. The data set is classed as protein assay.
Epidermal growth factor receptor (Homo sapiens), P00533 [L858R,T790M], sequence (P00533 whole entry T790M/L858R, looked up): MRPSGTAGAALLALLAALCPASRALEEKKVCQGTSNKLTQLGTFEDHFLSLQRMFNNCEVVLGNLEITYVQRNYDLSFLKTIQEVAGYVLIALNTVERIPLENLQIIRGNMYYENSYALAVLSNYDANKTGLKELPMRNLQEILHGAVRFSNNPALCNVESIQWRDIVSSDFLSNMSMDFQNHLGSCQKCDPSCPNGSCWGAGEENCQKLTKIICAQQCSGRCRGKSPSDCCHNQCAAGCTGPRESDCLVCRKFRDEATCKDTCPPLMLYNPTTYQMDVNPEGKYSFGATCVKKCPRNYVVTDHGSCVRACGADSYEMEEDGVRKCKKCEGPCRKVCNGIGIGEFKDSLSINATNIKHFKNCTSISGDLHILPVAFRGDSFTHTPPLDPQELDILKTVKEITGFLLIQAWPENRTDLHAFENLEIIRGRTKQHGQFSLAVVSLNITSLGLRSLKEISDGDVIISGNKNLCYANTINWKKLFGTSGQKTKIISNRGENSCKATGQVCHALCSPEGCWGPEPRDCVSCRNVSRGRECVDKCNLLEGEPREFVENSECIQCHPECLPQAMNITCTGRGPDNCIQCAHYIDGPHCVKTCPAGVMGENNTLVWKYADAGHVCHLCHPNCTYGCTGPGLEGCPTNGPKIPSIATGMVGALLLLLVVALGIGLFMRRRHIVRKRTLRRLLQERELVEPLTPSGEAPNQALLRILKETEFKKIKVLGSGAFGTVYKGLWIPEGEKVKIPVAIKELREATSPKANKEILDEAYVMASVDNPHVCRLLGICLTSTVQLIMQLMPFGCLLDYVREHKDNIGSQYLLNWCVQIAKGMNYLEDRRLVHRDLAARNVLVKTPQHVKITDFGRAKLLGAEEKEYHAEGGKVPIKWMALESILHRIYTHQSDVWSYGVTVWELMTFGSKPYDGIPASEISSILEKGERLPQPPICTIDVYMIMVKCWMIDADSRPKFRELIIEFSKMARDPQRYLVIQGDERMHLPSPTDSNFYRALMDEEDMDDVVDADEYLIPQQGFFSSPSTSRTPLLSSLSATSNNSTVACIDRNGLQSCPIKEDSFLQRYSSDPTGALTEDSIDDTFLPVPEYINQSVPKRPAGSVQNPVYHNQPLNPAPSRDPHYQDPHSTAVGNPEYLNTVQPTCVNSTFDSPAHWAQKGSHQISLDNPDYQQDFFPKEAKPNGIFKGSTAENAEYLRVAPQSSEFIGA
Data set [12] can be described thus: Solubility of compound at pH 7.4. Format: physicochemical. The conditions noted are these: buffer.
Data set [13] in a line: Antiproliferative activity against human Calu6 cells incubated for 72 hrs by SYTOX green nucleic acid stain-based fluorescence analysis. The data set is classed as cell-based, Calu-6.
For data set [14], the target named is T3, Tyrosine-protein kinase JAK3 (Homo sapiens) (UniProt P52333).
T3 sequence (whole entry): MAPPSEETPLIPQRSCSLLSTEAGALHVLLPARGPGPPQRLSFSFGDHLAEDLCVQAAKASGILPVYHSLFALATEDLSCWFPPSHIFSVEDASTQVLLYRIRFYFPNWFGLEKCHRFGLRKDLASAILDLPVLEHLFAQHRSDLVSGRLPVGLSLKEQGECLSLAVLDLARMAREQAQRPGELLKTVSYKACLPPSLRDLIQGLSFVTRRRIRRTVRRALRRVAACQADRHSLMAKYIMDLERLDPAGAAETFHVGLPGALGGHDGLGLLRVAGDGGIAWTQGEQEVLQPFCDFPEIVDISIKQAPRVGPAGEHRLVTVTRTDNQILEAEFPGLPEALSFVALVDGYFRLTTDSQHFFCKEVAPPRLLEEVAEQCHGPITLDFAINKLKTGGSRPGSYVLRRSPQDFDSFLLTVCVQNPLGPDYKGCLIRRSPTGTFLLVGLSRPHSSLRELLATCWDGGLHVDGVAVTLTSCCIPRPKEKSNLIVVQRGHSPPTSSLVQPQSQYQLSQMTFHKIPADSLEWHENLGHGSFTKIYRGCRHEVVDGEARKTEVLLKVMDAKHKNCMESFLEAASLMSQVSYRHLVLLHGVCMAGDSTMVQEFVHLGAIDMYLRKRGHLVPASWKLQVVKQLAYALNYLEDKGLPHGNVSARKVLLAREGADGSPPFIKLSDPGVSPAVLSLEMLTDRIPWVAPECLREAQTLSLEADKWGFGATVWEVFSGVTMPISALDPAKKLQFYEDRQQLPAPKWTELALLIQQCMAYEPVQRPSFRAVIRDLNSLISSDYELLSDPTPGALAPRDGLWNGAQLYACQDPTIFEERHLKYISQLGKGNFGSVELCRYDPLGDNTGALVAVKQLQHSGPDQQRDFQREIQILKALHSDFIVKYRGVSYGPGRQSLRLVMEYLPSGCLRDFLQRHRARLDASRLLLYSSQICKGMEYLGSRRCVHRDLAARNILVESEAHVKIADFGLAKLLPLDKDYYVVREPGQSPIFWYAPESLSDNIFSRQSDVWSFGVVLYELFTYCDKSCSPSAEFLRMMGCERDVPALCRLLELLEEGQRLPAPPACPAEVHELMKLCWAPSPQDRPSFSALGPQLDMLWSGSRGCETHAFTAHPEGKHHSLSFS
Briefly: Inhibition of human JAK3 at 1 uM.

The target in data set [15] is T2, Epidermal growth factor receptor. Briefly: Inhibition of wild-type EGFR autophosphorylation in human LoVo cells incubated for 2 hrs followed by EGF-stiumlation for 10 mins by ELISA. Format: cell-based.

Epidermal growth factor receptor (Homo sapiens, UniProt P00533, EX19DEL), sequence (P00533 whole entry, looked up, stated change not applied): as the sequence (P00533 whole entry) above

As for `C=CC(=O)Nc1cccc(-n2c(-c3nc(-c4cnn(C5CCN(C)CC5)c4)cnc3N)nc3ccccc32)c1`, the EC50 is 9 nM in data set [1], 14 nM in data set [6] and 980 nM in data set [15]. Moreover, in data set [2], the IC50 was < 1 nM. In the data set on Mus musculus, the Time came to 6 h. Also, the inhibition in [3], in data set [11] and in data set [14] was > 75% throughout. The inhibition in vivo at 50 mg/kg/day worked out at 21% in the data set on A-431, 117% in the data set with NCI-H1975 [4] and 238% in data set [10]. For the same compound, the selectivity ratio in [5] is > 60. In addition, in [7], the microsomal CLint came to 120 µL/min/mg. Also, the values for the GI50 (in data set [8]; with NCI-H1975 [9]) were 16 nM and 25 nM, respectively. In addition, the solubility in data set [12] is < 10 µM. Further, in data set [13], the GI50 at 72 h turned out to be 1700 nM.
